Reference: patent US8501806B2, “Methods for preventing or reducing colon carcinogenesis” (Nogra Pharma Limited, priority 2008, dated 2013)

Tests used:
[1] = test system: colitis-associated colon cancer; assay: AOM/DSS colitis-associated colon cancer; format: in vivo, Balb/c mice; settings: i.p. 16 mg/kg/mouse every second day for 49 days
Protocol: Balb/c mice were given a first i.p. injection of AOM (10 mg/kg) on day O, Seven days after the AOM injection, the mice were given 2% DSS in the drinking water for 7 days. One week after the discontinuation of DSS administration, the mice were given a second i.p. injection of AOM (5 mg/kg). Then, 7 days after the second AOM injection, the mice were again given 2% DSS in the drinking water for 7 days. Two weeks later, the mice were randomly divided into two groups receiving i.p. injection of PBS or 16 mg/kg/mouse compound 14 every second day, for 49 days until sacrifice. (To rule out the possibility that compound 14 could interfere with the ongoing mucosal inflammation, treatment was started 2 weeks after the last DSS administration.) Mice were endoscopically screened, and neoplastic lesions were scored as previously described All mice were sacrificed at the end of the study, and colonic samples were used for histological analysis and isolating lamina propria mononuclear cells (LPMC). An aliquot of LPMC was assessed for the expression of CD4, CD8, and CD25 by flow-cytometry using the following antibodies (CD4: cat. 552051, BD Pharmigen, Milan, Italy; CD8: cat. 22150084S and CD25: cat. 22150253, Immunotools, Friesoythe, Germany), while the remaining LPMC were used for extracting RNA and assessing the expression of COX-2, TNFα, and IL-1β by real-time PCR. To this end, the following primers were used: COX-2: FWD: 5′-[…]-3′; REV: 5′-[…]-3′, TNFα: FWD: 5′-[…]-3′; REV: 5′-[…]-3, IL-1β: FWD: 5′-[…]-3′; REV: 5′-[…]-3.
Colonic sections were stained with hematoxylin and eosin (H&E). The degree of inflammation and the presence of neoplastic lesions were evaluated and graded by the same pathologist in a blinded fashion. Immunohistochemistry for PCNA was performed using a PCNA staining kit (ZYMED Laboratories, Carlsbad, Calif., U.S.A.) according to the manufacturer's instructions. […] A polypoidor flat lesion is seen in control and compound 14-treated mice respectively.

[2] = test system: 4T1 cells; assay: CFSE cell proliferation assay, 4T1 cells; format: cell-based, BALB/c; settings: FIG. 9; graded doses, 24 hours
Protocol: All reagents were from Sigma-Aldrich (Milan, Italy), unless specified. Compound 14 was dissolved as a 25 mM stock solution in culture medium. 4T1 cells, a 6-thioguanine-resistant cell line derived from a BALB/c mammary carcinoma which spontaneously metastasizes to both the lung and liver, were obtained by ATCC and maintained at 37° C. in a humidified atmosphere of 5% CO2 in Dulbecco's modified Eagle's Medium (DMEM) supplemented with 10% inactivated fetal bovine serum (FBS) and 1% penicillin-streptomycin. For cell growth assays, serum-starved 4T1 cells were labeled with carboxyfluorescein diacetate succinimidyl ester (CFSE) (Invitrogen, Milan Italy) at 37° C. for 30 minutes, and then treated with increasing doses of compound 14. After 24 hours, cells were incubated with 5 μg/ml of propidium iodide (PI) for 15 minutes, at 4° C. CFSE and/or PI-positive cells were determined by flow cytometry (Becton Dickinson, Milan, Italy)

[3] = test system: colonic IEL (intra-epithelial lymphocytes); assay: Proliferation of normal colonic intra-epithelial lymphocytes (anti-CD3/CD28); format: cell-based; settings: FIG. 4A; anti-CD3/CD28, graded doses, 48 hours
[4] = test system: 4T1-derived metastasis; assay: 4T1 spontaneous metastasis, clonogenic metastasis assay; format: in vivo, Balb/c mice; settings: FIG. 11; daily i.p. 8 mg/kg/mouse, sacrificed at day 35
Protocol: Spontaneous metastases were measured by adapting methods described previously by Pulaski and Ostrand-Rosenberg (Cancer Research 58, 1486-1493, 1998). 4T1 tumor cells (1×10^5 cells in 100 μl 1×PBS) were injected s.c. in the abdominal mammary gland of 8-10 weeks old female Balb/c mice. Three days after 4T1 injection, mice received daily i.p. administration of compound 14 (8 mg/kg/mouse) or PBS (control). Mice were monitored over the time for weight loss and sacrificed at day 35. Lungs and liver were removed from each mouse, and treated as follows: liver samples were finely minced and digested with an enzyme solution containing 1×PBS, 0.01% BSA, 1 mg/ml hyaluronidase, and 1 mg/ml collagenase type I for 20 min at 37° C. on a platform rocker; lung samples were finely minced and digested with an enzyme cocktail containing 1×PBS, 1 mg/ml collagenase type IV and 10 units/ml elastase for 1 h at […] on a rotating wheel. At the end, samples were filtered through 70 μm nylon cell strainers and washed three times with 1×PBS. The resulting cell preparations were resuspended and plated neat or serially diluted in 10-cm tissue culture dishes in 20 ml of medium containing 60 μM 6-thioguanine. Suspensions were incubated in 10% CO2-air atmosphere at 37° C. for clonogenic growth. […] Total colony-forming cells were calculated on a per-organ basis. […]

[5] = test system: HCT-116 cells; assay: Cell cycle distribution (BrdU/PI flow cytometry); format: cell-based, human; settings: FIG. 5; increasing concentrations, 24 hours
Protocol: For analysis of cell cycle distribution, serum-starved cells were cultured in medium containing 0.05% BSA and the desiderated concentrations of compound 14 for 24 hours. Cells were pulsed with 10 μM BrdU for 60 minutes, then collected, washed twice with PBS 1×, fixed in 70% cold ethanol, and stored at −20° C. for at least 3 hours. Afterwards, cells were washed twice with PBS 1×, denatured in 2M HCl and stained with anti-BrdU monoclonal antibody (Immunotech, Marseille, France) followed by FITC-conjugated secondary anti-mouse IgG (Molecular Probes/Invitrogen, Milan, Italy). After staining with 100 μg/ml PI, cells were analyzed by flow cytometry. […] HCT-116 cells were treated with or without compound 14 for 24 hours. Values in FIG. 5 are the percentages of cells in the different phases of cell cycle and indicate mean±SD of 4 experiments (untreated vs compound 14-treated cells * P<0.04, ** P<0.001). Right insets show representative dot-plots of the cell cycle distribution.

COc1ccc(N)cc1C(=O)NO [compound 14, 2-methoxy-5-amino-N-hydroxybenzamide]
multiplicity of neoplastic lesions (polypoid and flat) ([1]; FIG. 8C): significantly reduced both types of lesions
PCNA staining in normal colonic mucosa [1]: no significant change
PCNA staining of neoplastic lesions [1]: confirmed the anti-proliferative effect
in vitro proliferation of 4T1 cells [2]: dose-dependently inhibited
proliferation of normal colonic intra-epithelial lymphocytes [3]: did not affect
number of liver metastatic tumor cells [4]: reduction
number of lung metastatic tumor cells [4]: reduction
cells in G0/G1 phase [5]: progressive accumulation
cells with S and G2/M phase DNA content [5]: decrease
